Results reported in US20030092638A1, “Protopanaxadiol and protopanaxatriol and their use as anti-cancer agents” (priority 2001, published 2003).
Like-named read-outs stand apart in the source and are kept apart here.

Experiments:
MCF7 cells [1] = settings: MCF7 (drug sensitive)
Protocol: (§1) Cells were either treated with various concentrations of paclitexal alone or in the presence of 20 μg/ml Rh2, 6 μg/ml PPT or PPD.

MCF7r cells [2] = settings: MCF7r (drug resistant)
Protocol: as §1

MCF7 cells [3] = experiment: cells; settings: Homo sapiens, MCF7, read-out: IC50 of taxol
Protocol: as §1

MCF7r cells [4] = experiment: cells; settings: Homo sapiens, read-out: IC50 of taxol
Protocol: as §1

Protocol for B16 melanoma tumor cells: Cells were treated with various concentrations of the compounds and the viability was measured 24 hours post treatment.

SMILES | Enhancement of IC50 of taxol versus taxol only (MCF7 cells [1]; compound at 6 μg/ml) | Enhancement of IC50 of taxol versus taxol only (MCF7r cells [2]; compound at 6 μg/ml) | Tumor inhibitory effect (cytotoxicity) compared with Rh2 (B16 melanoma tumor cells) | Enhancement of IC50 of taxol versus taxol only (MCF7 cells [1]; compound at 20 μg/ml) | Enhancement of IC50 of taxol versus taxol only (MCF7r cells [2]; compound at 20 μg/ml) | IC50 (MCF7 cells [3]) [nM] | IC50 (MCF7r cells [4]) [nM]
CC(C)=CCCC(C)(O)[C@H]1CC[C@]2(C)[C@@H]1[C@H](O)C[C@@H]1[C@@]3(C)CC[C@H](O)C(C)(C)[C@@H]3CC[C@]12C (stereo in doubt) [Protopanaxadiol, protopanaxadiol] | (18 fold | (29517 fold | more potent tumor inhibitory effect than Rh2 |  |  |  | 
CC(C)=CCC[C@](C)(O)[C@H]1CC[C@]2(C)[C@@H]1[C@H](O)C[C@@H]1[C@@]3(C)CC[C@H](O)C(C)(C)[C@@H]3[C@@H](O)C[C@]12C [Protopanaxatrial, protopanaxatriol] | (4.9 fold | (1744 fold | more potent tumor inhibitory effect than Rh2 |  |  |  | 
CC(C)=CCC[C@](C)(O)[C@H]1CC[C@]2(C)[C@@H]1[C@H](O)C[C@@H]1[C@@]3(C)CC[C@H](O[C@@H]4O[C@H](CO)[C@@H](O)[C@H](O)[C@H]4O)C(C)(C)[C@@H]3CC[C@]12C [Rh2, 3-O-β-D-glucopyranosyl-20(s)-protopanaxadiol, reference compound] |  |  |  | (3.65 fold | (4470 fold |  | 
CC(=O)O[C@H]1C(=O)[C@@]2(C)[C@H]([C@H](OC(=O)c3ccccc3)[C@]3(O)C[C@H](OC(=O)[C@H](O)[C@@H](NC(=O)c4ccccc4)c4ccccc4)C(C)=C1C3(C)C)[C@]1(OC(C)=O)CO[C@@H]1C[C@@H]2O [Taxol, paclitaxel] |  |  |  |  |  | 225 | 930
